The source of these data is PMC12371487, “Phenylalkyl Acetophenones and Anacardic Acids from Knema oblongifolia with Synthetic Analogues as Anti-infectives and Antibacterial Agents” (ACS Bio & Med Chem Au, 2025).

By IC50 is commonly meant the point on the concentration scale where inhibition reaches its midpoint. The MIC is the least concentration at which growth counts as inhibited.

Converted amounts (≈) assume the structure as drawn.

Common to all, as to assay type: cell-based
The test system of assay [1] is Mycobacterium marinum (Mm) in infection of Dictyostelium discoideum. In words: Dd-Mm infection assay: intracellular Mm growth (luminescence). As to the method: (§1) Plant extracts, fractions, or isolated compounds were stored at −20 °C and wrapped in aluminum foil if necessary. All manipulations with extracts, fractions, or compounds were performed under a sterile hood. Extracts, fractions, and compounds were resuspended throughout in DMSO to best solubilize extracts with diverse constituents. Extracts, fractions, or compounds were added to the assay plate in a 1:100 dilution. Assay solutions of extracts, fractions, and compounds were prepared in 96-well plates, stored at −20 °C, and thawed before the experiment at room temperature or warmer with or without shaking/vortexing to obtain a clear assay solution. Extracts were tested at 25 μg/mL and purified compounds in a dose–response curve of 6 concentrations with 100 μM being the top concentration and a 1:3 dilution step between each testing concentration. Since fractions were not weighed individually, the injection mass was used to calculate an average mass per fraction and thus a nominal mass concentration. Fractions were tested at a nominal concentration of 10 μg/mL.
(§2) As described in Nitschke et al. and Mottet et al., Dd Ax2(ka) expressing mCherry from the act5 chromosomal locus was infected with Mm M strain expressing the lux operon (luxCDABE) , by spinoculation.
(§3) Briefly, the day before the experiment, Mm was cultivated in 7H9 broth (Becton Dickinson, Difco Middlebrook 7H9) supplemented with 10% OADC (Becton Dickinson) and 0.05% tyloxapol (Sigma-Aldrich) and 50 μg/mL kanamycin at 32 °C overnight with continuous shaking. Additionally, the day before the experiment, 10^7 amoebae were plated in HL5-C in a 10 cm Petri dish (Falcon). On the day of the experiment, a volume of the Mm culture corresponding to a multiplicity of infection of 25 with respect to the number of amoebae in the Petri dish was added to the semiconfluent amoebae monolayer. Subsequently, the Petri dishes were centrifuged twice at 500g, as described in Mottet et al. To remove extracellular bacteria, dishes were rinsed with fresh HL5-C, and the infected cell population was resuspended in HL5-C with 5 U/mL penicillin and 5 μg/mL streptomycin (Gibco) to inhibit the extracellular growth of bacteria during the course of the experiment.
(§4) For testing fractions and purified compounds, 20 μL of infected cell suspension was plated into each well of a 384-well plate (Interchim FP-BA8240) to an effective cell number of 1 × 10^4 cells per well. Fractions or compounds including a vehicle control (0.3% DMSO final concentration) and a positive control (rifabutin, 10 μM final concentration) were added using an electronic multipipette (Sartorius). Subsequently, the well plates were sealed with a gas impermeable membrane (H769.1, Carl Roth), briefly centrifuged, and intracellular bacterial growth was monitored using an Agilent BioTek H1 plate reader and an Agilent BioTek BioStack plate stacker by recording luminescence over 72 h at 25 °C with readings taken every hour. Fluorescence was also recorded to monitor amoeba growth.
(§5) For both assays, growth curves were obtained by measuring the luminescence and fluorescence as a proxy for bacterial growth and host growth, respectively, for 72 h with time-points taken every hour. The “normalized residual growth” was computed by calculating the area under the curve (AUC, trapezoid method) and normalizing it to the vehicle control (0.3% DMSO, set at 1) and a baseline curve (set at 0). The baseline curve was calculated by taking the median of the first measurement of all wells in a plate and extrapolating it over the complete time course. The threshold for hit detection was arbitrarily fixed at a cutoff of normalized residual growth ≤0.5. Normalized values were averaged over technical and biological replicates (all experiments on isolated compounds have at least n = 3 and N = 3, whereas the primary extract screening and microfractions testing had values of n = 1 and N = 3). […]

The subject of assay [2] is Mycobacterium marinum (Mm) in broth. The experiment in a line: Mm growth in broth (antibiotic assay, luminescence). The conditions noted are these: 72 h; for IC50 on Mm in broth: Mm in 7H9 broth, luminescence at 32 °C, IC50 interpolated. The procedure: as §1, with “Extracts, fractions, and compounds were resuspended throughout in DMSO to best solubilize extracts with diverse constituents.” left out
For testing bacteria in broth, the preculture was diluted to a bacterial density of 3.75 × 10^5 bacteria per mL in 7H9 medium. Plating bacteria and compounds or fractions was performed analogously to the infection assay described above. Bacteria growth was monitored with the Agilent BioTek H1 plate reader by recording luminescence at 32 °C.
For both assays, growth curves were obtained by measuring the luminescence and fluorescence as a proxy for bacterial growth and host growth, respectively, for 72 h with time-points taken every hour. The “normalized residual growth” was computed by calculating the area under the curve (AUC, trapezoid method) and normalizing it to the vehicle control (0.3% DMSO, set at 1) and a baseline curve (set at 0). The baseline curve was calculated by taking the median of the first measurement of all wells in a plate and extrapolating it over the complete time course. The threshold for hit detection was arbitrarily fixed at a cutoff of normalized residual growth ≤0.5.
This procedure was also applied to screening extracts with slight modifications. The day before the experiment we preplated 10 μL of HL5-C using a dispenser (Thermo Multidrop), subsequently we preplated 2.2 μL of dissolved extracts from 96-well plates into quadrants 1, 2, and 3 of 384-well plates, whereas quadrant 4 was used for positive and vehicle controls. Preplating of extracts was performed using a liquid handler (Agilent Bravo). In total, 24 extract plates were distributed in triplicate into […] 384-well plates, amounting to 24 assay plates. The prepared plates were sealed and stored at 4 °C overnight. On the day of the experiment, nine 10 cm Petri dishes were infected (as described before) and grouped into three pools. The cell suspension was adjusted to 10^6 cells/mL, and 10 μL was plated into the 24 assay plates, resulting in 10^4 cells per well, as used for conventional infection experiments. Plates were sealed and placed in the plate stacker that supplied the plate reader. The same procedure was used to screen the same extracts on Mm in a broth. For both assays, the first time points and a time point after 72 h were recorded. Subsequently, we normalized the end point, first with the median of the full assay plate at the first time point and second with the end point of the vehicle controls in the respective assay plate.
For IC50 estimation, we used a rudimentary approach of interpolating the sample concentration between the two normalized residual growth values, which were closest to a value of 0.5.

Assay [3] has as its system Dictyostelium discoideum (Dd) in infection. In words: Dd-Mm infection assay: host amoeba growth (fluorescence). Conditions: infected Dd, fluorescence AUC over 72 h at 25 °C, 6-concentration curve, top 100 μM, 1:3 steps, IC50 interpolated; for IC50: Dictyostelium discoideum. As to the method: as §1, §2, §3, §4, §5
The test system of assay [4] is Staphylococcus aureus (Sa) Newman strain. In words: MIC determination in Mueller-Hinton broth (CLSI) on Sa. The conditions noted are these: Mueller-Hinton broth, CLSI; for MIC: Staphylococcus aureus, NEWMAN, read-out: MIC on Sa. As to the method:
MICs were determined in Mueller–Hinton (MH) broth according to CLSI guidelines and were repeated at least on three different occasions.
The Newman strain ofS. aureus and the UCBPP-PA14 strain ofP. aeruginosa were used in this study.

The mark [5] stands for this setting: Mm inside Dd, luminescence AUC over 72 h at 25 °C, 6-concentration curve, top 100 μM, 1:3 steps, IC50 interpolated.

With `CC(=O)c1c(O)c(Cl)c(O)c(Cl)c1CCCCCCc1ccccc1` [Compound 29, 1-(3,5-Dichloro-2,4-dihydroxy-6-(6-phenylhexyl)phenyl)ethan-1-one], the IC50 in assay [1] (setting [5]) is 2.47 µM; in assay [3], 7.41 µM. The “IC50 on Mm in broth” value in assay [2] is given as “not active”. Also, the MIC in assay [4] fell in the range of 4 to 8 µg/mL (≈ 10.5 to 21 µM).
`CCCCCCCCCCCCCc1cccc(O)c1C(=O)O` [Compound 12, 6-Tridecylsalicylic acid]: the IC50 in assay [1] (setting [5]) and in assay [3] was 66.7 µM throughout. Further, the “IC50 on Mm in broth” value in assay [2] is “Not active”. Moreover, in assay [4], the “MIC on Sa” value is given as “Not active”.
Take `CC(=O)c1cc(Cl)c(O)cc1O` [Compound 16, 5-Chloro-2,4-dihydroxyacetophenone]: the IC50 in assay [1] (setting [5]) and in assay [3] was 22.2 µM throughout. For the same molecule, in assay [2], the “IC50 on Mm in broth” value is recorded as “not active”. The “MIC on Sa” value in assay [4] was “not active”.
As to `CC(=O)c1cc(Br)c(O)cc1O` [Compound 19, 5-Bromo-2,4-dihydroxyacetophenone], the IC50 in assay [1] (setting [5]) is 66.7 µM; in assay [3] it was 22.2 µM. The “IC50 on Mm in broth” value in assay [2] is “not active”. The “MIC on Sa” value in assay [4] is “not active”.
In assay [1] (setting [5]), `CC(=O)c1c(O)cc(O)cc1CCCCCCc1ccccc1` [Compound 4, Knemolone C] registered an IC50 of 22.2 µM. In addition, the “IC50 on Mm in broth” value in assay [2] is on record as “not active”. Further, in assay [3], inhibition was half-maximal at 22.2 µM (IC50). Further, in assay [4], the “MIC on Sa” value was determined as 4 μg·mL^–1 and the MIC was determined as 4 µg/mL (≈ 12.8 µM).
On to `O=C(O)c1c(O)cccc1CCCCCCc1ccc2c(c1)OCO2` [Compound 6, Knemolic acid B], for which the IC50 in assay [1] (setting [5]) and in assay [3] was 7.41 µM each time. For the same molecule, the “IC50 on Mm in broth” value in assay [2] is given as “Not active”. In addition, in assay [4], the MIC was determined as 8 µg/mL (≈ 23.4 µM).
`CCCCCCCCCc1cc(O)cc(O)c1C(C)=O` [Compound 5, Knemolone D]: the “IC50 on Mm in infection” value in assay [1] (setting [5]) is listed as “Not active”. For the same molecule, the “IC50 on Mm in broth” value in assay [2] is on record as “Not active”. In addition, the IC50 in assay [3] came out at 22.2 µM. Moreover, the MIC in assay [4] was determined as 2 µg/mL (≈ 7.18 µM).
Consider `CC(=O)c1c(O)cc(O)cc1CCCCc1ccc2c(c1)OCO2` [Compound 1, Knemolone A], for which the IC50 in assay [1] (setting [5]) and in assay [3] was 22.2 µM throughout. Also, the “IC50 on Mm in broth” value in assay [2] is “Not active”. Besides, in assay [4], the “MIC on Sa” value is on record as “Not active”.
Take `CC(=O)c1cc(Cl)c(O)c(Cl)c1O` [Compound 17, 3,5-Dichloro-2,4-dihydroxyacetophenone]: the IC50 in assay [1] (setting [5]) and in assay [3] was 66.7 µM each time. Also, the “IC50 on Mm in broth” value in assay [2] is recorded as “not active”. Besides, the “MIC on Sa” value in assay [4] is “not active”.
In assay [1] (setting [5]), `CC(=O)c1ccc(O)cc1O` [Compound 13, 2,4-Dihydroxyacetophenone] registered an IC50 of 66.7 µM. In addition, the “IC50 on Mm in broth” value in assay [2] is listed as “not active”. Also, in assay [3], the “IC50 on Dd in infection” value is “not active”. Further, the “MIC on Sa” value in assay [4] is reported as “not active”.
For the molecule `CCCCCCCCCCCc1cccc(O)c1C(=O)O` [Compound 11, Anagigantic acid], the IC50 in assay [1] (setting [5]) and in assay [3] was 2.47 µM each time. Moreover, in assay [2], the “IC50 on Mm in broth” value is “Not active”. Also, the MIC in assay [4] came to 8 µg/mL (≈ 27.4 µM).
On to `O=C(O)c1c(O)cccc1CCCCCCc1ccccc1` [Compound 7, Knemolic acid C], for which the IC50 in assay [1] (setting [5]) and in assay [3] was 7.41 µM throughout. Further, the “IC50 on Mm in broth” value in assay [2] was “not active”. Besides, the MIC in assay [4] was determined as 8 µg/mL (≈ 26.8 µM).
On to `O=C(/C=C/c1c2ccccc2cc2ccccc12)c1cc(Cl)c(O)cc1O` [Compound 27, (E)-3-(Anthracen-9-yl)-1-(5-chloro-2,4-dihydroxyphenyl)prop-2-en-1-one], for which the IC50 in assay [1] (setting [5]) was 0.59 µM; in assay [3] it was 15.9 µM. For the same molecule, the “specificity window (IC50 on Dd vs IC50 on intracellular Mm)” value in assay [1] (ratio of IC50 against Dd growth to IC50 on intracellular Mm) is given as 25 fold. Also, the “IC50 on Mm in broth” value in assay [2] is recorded as “not active”. The “MIC on Sa” value in assay [4] was 2 mg·L–1. Moreover, the MIC in assay [4] is 2 µg/mL (≈ 5.34 µM).
With `CCCCCCCCCc1cccc(O)c1C(=O)O` [Compound 8, Khookerianic acid A], the IC50 in assay [1] (setting [5]) and in assay [3] was 2.47 µM throughout. Besides, the “IC50 on Mm in broth” value in assay [2] was “not active”. For the same molecule, the MIC in assay [4] was found to be 8 µg/mL (≈ 30.3 µM).
On to `CC(=O)c1ccc(O)c(Br)c1O` [Compound 18, 3-Bromo-2,4-dihydroxyacetophenone], for which the IC50 in assay [1] (setting [5]) and in assay [3] was 66.7 µM in each case. The “IC50 on Mm in broth” value in assay [2] was “not active”. Moreover, the “MIC on Sa” value in assay [4] is “not active”.
In the case of `CO[C@H]1/C=C/O[C@@]2(C)Oc3c(C)c(O)c4c(c3C2=O)C2=NC3(CCN(CC(C)C)CC3)NC2=C(NC(=O)/C(C)=C\C=C\[C@H](C)[C@H](O)[C@@H](C)[C@@H](O)[C@@H](C)[C@H](OC(C)=O)[C@@H]1C)C4=O` [rifabutin, reference compound], the IC50 in assay [1] (setting [5]) stood at 0.2 µM; in assay [2] (Mycobacterium marinum, read-out: IC50 on Mm in broth) it was 0.03 µM. In assay [3], the “IC50 on Dd in infection” value is given as “not active”.
